Patent publication US10058550B2, “Methods of treating heart failure” (priority 2015, dated 2018)

Target: human APJ receptor (Homo sapiens (Human), UniProt P35414)
Assay: biochemical
Format: biochemical
Details: read-out: Activity hAPJ SPA EC50 IP
Method: The human APJ receptor was cloned by polymerase chain reaction and the gene encoding the receptor was subcloned in pFLAG-CMV™-3 expression vector (Sigma, Saint Louis, Mo. USA) in-house at Amgen. A GTPγS binding assay was performed on membranes prepared from CHO cells stably expressing human APJ receptor. The optimum experimental conditions for the concentrations of GDP, MgCl2, and NaCl in the assay buffer were initially determined. The assay was performed in assay buffer [20 mM HEPES, pH 7.5, 5 mM MgCl2, and 0.1% (w/v) BSA with 200 mM NaCl, 3 μM GDP] and membranes expressing human APJ receptor/well along with WGA PS beads. The reaction was initiated by addition of 0.2 nM [^35S]GTPγS (Perkin Elmer Life and Analytical Sciences, Waltham USA) in the absence or presence of various ligands and incubated at RT for 90 min. […] All the results presented are means of several independent experiments and analyzed by non-linear regression methods using commercially available program Prism (GraphPad, San Diego, Calif.) to obtain EC50 detailed in Table 58.

Chain of human APJ receptor (P35414 whole entry): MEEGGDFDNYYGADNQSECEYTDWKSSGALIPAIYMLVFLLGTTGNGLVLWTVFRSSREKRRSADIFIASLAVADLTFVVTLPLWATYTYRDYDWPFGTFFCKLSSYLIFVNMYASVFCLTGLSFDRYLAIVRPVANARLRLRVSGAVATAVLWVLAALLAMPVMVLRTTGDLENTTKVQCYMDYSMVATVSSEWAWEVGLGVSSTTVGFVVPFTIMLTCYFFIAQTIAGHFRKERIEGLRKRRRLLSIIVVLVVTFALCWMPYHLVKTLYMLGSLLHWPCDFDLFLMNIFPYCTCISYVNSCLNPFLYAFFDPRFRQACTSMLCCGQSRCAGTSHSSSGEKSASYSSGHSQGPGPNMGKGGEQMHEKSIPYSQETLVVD

Row | SMILES | EC50
1 | COc1cccc(-c2nnc(NS(=O)(=O)[C@H](C)C(=O)N3CCCC3)n2-c2c(OC)cccc2OC)n1 (mixture of isomers) [Example 83.0, (2R)-N-(4-(2,6-dimethoxyphenyl)-5-(6-methoxy-2-pyridinyl)-4H-1,2,4-triazol-3-yl)-1-oxo-1-(1-pyrrolidinyl)-2-propanesulfonamide and (2S)-N-(4-(2,6-dimethoxyphenyl)-5-(6-methoxy-2-pyridinyl)-4H-1,2,4-triazol-3-yl)-1-oxo-1-(1-pyrrolidinyl)-2-propanesulfonamide] | 48 nM
2 | COc1cccc(OC)c1-n1c(NS(=O)(=O)[C@@H](C)[C@H](C)c2ncc(F)cn2)nnc1-c1cccnc1 (mixture of isomers) [Example 182.0, (2R,3S)-N-(4-(2,6-dimethoxyphenyl)-5-(3-pyridinyl)-4H-1,2,4-triazol-3-yl)-3-(5-fluoro-2-pyrimidinyl)-2-butanesulfonamide and (2S,3R)-N-(4-(2,6-dimethoxyphenyl)-5-(3-pyridinyl)-4H-1,2,4-triazol-3-yl)-3-(5-fluoro-2-pyrimidinyl)-2-butanesulfonamide] | 1.1 nM
3 | COc1cccc(OC)c1-n1c(NS(=O)(=O)[C@@H](C)Cc2ncc(F)cn2)nnc1-c1ccccn1 (mixture of isomers) [Example 202.0, (2R)-N-(4-(2,6-dimethoxyphenyl)-5-(2-pyridinyl)-4H-1,2,4-triazol-3-yl)-1-(5-fluoro-2-pyrimidinyl)-2-propanesulfonamide and (2S)-N-(4-(2,6-dimethoxyphenyl)-5-(2-pyridinyl)-4H-1,2,4-triazol-3-yl)-1-(5-fluoro-2-pyrimidinyl)-2-propanesulfonamide] | 15.4 nM
4 | COc1cccc(-c2nnc(NS(=O)(=O)C[C@H](O)c3ccc(Cl)cc3)n2-c2c(OC)cccc2OC)n1 (mixture of isomers) [Example 264.0, (R)-2-(4-chlorophenyl)-N-(4-(2,6-dimethoxyphenyl)-5-(6-methoxypyridin-2-yl)-4H-1,2,4-triazol-3-yl)-2-hydroxyethanesulfonamide and (S)-2-(4-chlorophenyl)-N-(4-(2,6-dimethoxyphenyl)-5-(6-methoxypyridin-2-yl)-4H-1,2,4-triazol-3-yl)-2-hydroxyethanesulfonamide] | 0.34 nM
5 | COc1cccc(OC)c1-n1c(NS(=O)(=O)C[C@@H](O)C2CCC2)nnc1-c1cncc(C)c1 (mixture of isomers) [Example 382.0, (R)-2-cyclobutyl-N-(4-(2,6-dimethoxyphenyl)-5-(5-methylpyridin-3-yl)-4H-1,2,4-triazol-3-yl)-2-hydroxyethanesulfonamide and (S)-2-cyclobutyl-N-(4-(2,6-dimethoxyphenyl)-5-(5-methylpyridin-3-yl)-4H-1,2,4-triazol-3-yl)-2-hydroxyethanesulfonamide] | 73 nM
6 | COc1cccc(-c2nnc(NS(=O)(=O)[C@H](C)[C@@H](O)C(C)(C)C)n2-c2c(OC)cccc2OC)n1 (mixture of isomers) [Example 433.0] | 42 nM
7 | COc1cccc(OC)c1-n1c(NS(=O)(=O)[C@@H](C)[C@H](C)c2ncc(F)cn2)nnc1-c1cccc(C)n1 (mixture of isomers) [Example 452.0, (2S,3R)—N-(4-(2,6-dimethoxyphenyl)-5-(6-methyl-2-pyridinyl)-4H-1,2,4-triazol-3-yl)-3-(5-fluoro-2-pyrimidinyl)-2-butanesulfonamide and (2R,3S)—N-(4-(2,6-dimethoxyphenyl)-5-(6-methyl-2-pyridinyl)-4H-1,2,4-triazol-3-yl)-3-(5-fluoro-2-pyrimidinyl)-2-butanesulfonamide] | 1 nM
8 | COc1cccc(OC)c1-n1c(NS(=O)(=O)[C@@H](C)Cc2ncc(F)cn2)nnc1-c1cccc(C)n1 (mixture of isomers) [Example 618.0, (S)-N-(4-(2,6-dimethoxyphenyl)-5-(6-methylpyridin-2-yl)-4H-1,2,4-triazol-3-yl)-1-(5-fluoropyrimidin-2-yl)propane-2-sulfonamide and (R)-N-(4-(2,6-dimethoxyphenyl)-5-(6-methylpyridin-2-yl)-4H-1,2,4-triazol-3-yl)-1-(5-fluoropyrimidin-2-yl)propane-2-sulfonamide] | 5.4 nM
9 | COc1cccc(OC)c1-n1c(NS(=O)(=O)[C@H](C)[C@@H](OC)c2ncnn2C)nnc1-c1cncc(C)c1 (mixture of isomers) [Example 637.0, (1S,2R)-N-(4-(2,6-dimethoxyphenyl)-5-(5-methylpyridin-3-yl)-4H-1,2,4-triazol-3-yl)-1-methoxy-1-(1-methyl-1H-1,2,4-triazol-5-yl)propane-2-sulfonamide and (1R,2S)-N-(4-(2,6-dimethoxyphenyl)-5-(5-methylpyridin-3-yl)-4H-1,2,4-triazol-3-yl)-1-methoxy-1-(1-methyl-1H-1,2,4-triazol-5-yl)propane-2-sulfonamide] | 150 nM
10 | COc1cccc(OC)c1-n1c(NS(=O)(=O)[C@@H](C)[C@H](O)c2ccc(Br)c(C)n2)nnc1-c1cccnc1 (mixture of isomers) [Example 642.0, (1R,2S)-1-(5-bromo-6-methylpyridin-2-yl)-N-(4-(2,6-dimethoxyphenyl)-5-(pyridin-3-yl)-4H-1,2,4-triazol-3-yl)-1-hydroxypropane-2-sulfonamide and (1S,2R)-1-(5-bromo-6-methylpyridin-2-yl)-N-(4-(2,6-dimethoxyphenyl)-5-(pyridin-3-yl)-4H-1,2,4-triazol-3-yl)-1-hydroxypropane-2-sulfonamide] | 0.48 nM
11 | COc1cccc(-c2nnc(NS(=O)(=O)[C@H]3CCCO[C@H]3c3ncc(C)cn3)n2-c2c(OC)cccc2OC)n1 (mixture of isomers) [Example 648.0] | 33 nM
12 | COc1cccc(OC)c1-n1c(NS(=O)(=O)C(C)Cc2ncc(F)cn2)nnc1-c1cncc(Br)c1 (racemic) [Example 146.0, (2R)-N-(5-(5-bromo-3-pyridinyl)-4-(2,6-dimethoxyphenyl)-4H-1,2,4-triazol-3-yl)-1-(5-fluoro-2-pyrimidinyl)-2-propanesulfonamide and (2S)-N-(5-(5-bromo-3-pyridinyl)-4-(2,6-dimethoxyphenyl)-4H-1,2,4-triazol-3-yl)-1-(5-fluoro-2-pyrimidinyl)-2-propanesulfonamide] | 2.1 nM
13 | COc1cccc(OC)c1-n1c(NS(=O)(=O)[C@H](C)[C@@H](C)n2cc(C)cn2)nnc1-c1cncc(C)c1 (racemic) [Example 647.0] | 1.7 nM
14 | COc1cccc(OC)c1-n1c(NS(=O)(=O)[C@H](C)[C@@H](C)c2cnc(C)cn2)nnc1-c1cccnc1 (racemic) [Example 701.0, (2R,3S)-N-(4-(2,6-dimethoxyphenyl)-5-(3-pyridinyl)-4H-1,2,4-triazol-3-yl)-3-(5-methyl-2-pyrazinyl)-2-butanesulfonamide, (2S,3R)-N-(4-(2,6-dimethoxyphenyl)-5-(3-pyridinyl)-4H-1,2,4-triazol-3-yl)-3-(5-methyl-2-pyrazinyl)-2-butanesulfonamide] | 2 nM
15 | COc1cccc(-c2nnc(NS(=O)(=O)[C@@H](C)[C@@H](OC(C)C)c3ncc(C)cn3)n2-c2c(OC)cccc2OC)n1 (single isomer, unassigned) [Example 95.0] | 0.11 nM
16 | CCO[C@@H](c1ncc(C)cn1)[C@@H](C)S(=O)(=O)Nc1nnc(-c2cccnc2)n1-c1c(OC)cccc1OC (single isomer, unassigned) [Example 108.0] | 150 nM
17 | COc1cccc(OC)c1-n1c(NS(=O)(=O)[C@@H](C)Cc2ncc(F)cn2)nnc1-c1cncc(C)c1 (single isomer, unassigned) [Example 208.0] | 1 nM
